Test results: patent US20040106545A1, “Compounds and methods for modulating cell adhesion” (priority 1996, published 2004)
pEC50, pIC50: −log10 of the molar value. Where two headings read alike, the source gives them in different places. Positions of bridges follow the written chain, without caps; N, C: chain ends. Residues, ends and D or L forms follow the SMILES beside them. *: point of attachment. Ms = CS(=O)(=O)*

How the values were obtained:
HMVEC = assay type: cell-based, human; details: 3 h
Experimental: (§1) N—Ac-CHAVC-NH2 (SEQ ID NO:10) and the control peptide N—Ac-CHGVC-NH2 (SEQ ID NO:11) were evaluated for possible cytotoxic effects on human microvascular endothelial (HMVEC; Clonetics), human umbilical vein endothelial (HUVEC; ATCC #CRL-1730), IAFp2 (human fibroblast cell line; Institute Armand-Frapier, Montreal, Quebec), WI-38 (human fibroblast cell line; ATCC #CCL-75), MDA-MB231 (human breast cancer cell line; ATCC #HTB-26), and PC-3 (human prostate cancer cell line; ATCC #CRL-1435) cells utilizing the MTT assay (Plumb et al., Cancer Res. 49:4435-4440, 1989). Neither of the peptides was cytotoxic at concentrations up to and including 100 μM. Similarly, neither of the peptides was capable of inhibiting the proliferation of the above cell lines at concentrations up to 100 μM, as judged by ^3H-thymidine incorporation assays.

HUVEC = assay type: cell-based, human; details: 3 h
Experimental: as §1

IAFp2 = assay type: cell-based, human; details: 3 h
Experimental: as §1

MDA-MB231 [1] = assay type: cell-based, human; details: 3 h
Experimental: as §1

PC-3 [2] = assay type: cell-based, human; details: 3 h
Experimental: as §1

WI-38 = assay type: cell-based, human; details: 3 h
Experimental: as §1

MDA-MB231 [3] = assay: Cytotoxicity, MTT assay, MDA-MB231; assay type: cell-based, human
Experimental: as §1

PC-3 [4] = assay: Cytotoxicity, MTT assay, PC-3; assay type: cell-based, human
Experimental: as §1

N-cadherin = target: T1, N-cadherin (Gallus gallus, UniProt P10288); assay: Neurite outgrowth inhibition, rat neurons (Example 21); assay type: cell-based; details: read-out: % Inhibition of neurite outgrowth; 250 μg/mL
T1 construct: expressed in transfected cells; host or cells: 3T3 fibroblasts (monolayer)
T1 sequence (P10288 165-912): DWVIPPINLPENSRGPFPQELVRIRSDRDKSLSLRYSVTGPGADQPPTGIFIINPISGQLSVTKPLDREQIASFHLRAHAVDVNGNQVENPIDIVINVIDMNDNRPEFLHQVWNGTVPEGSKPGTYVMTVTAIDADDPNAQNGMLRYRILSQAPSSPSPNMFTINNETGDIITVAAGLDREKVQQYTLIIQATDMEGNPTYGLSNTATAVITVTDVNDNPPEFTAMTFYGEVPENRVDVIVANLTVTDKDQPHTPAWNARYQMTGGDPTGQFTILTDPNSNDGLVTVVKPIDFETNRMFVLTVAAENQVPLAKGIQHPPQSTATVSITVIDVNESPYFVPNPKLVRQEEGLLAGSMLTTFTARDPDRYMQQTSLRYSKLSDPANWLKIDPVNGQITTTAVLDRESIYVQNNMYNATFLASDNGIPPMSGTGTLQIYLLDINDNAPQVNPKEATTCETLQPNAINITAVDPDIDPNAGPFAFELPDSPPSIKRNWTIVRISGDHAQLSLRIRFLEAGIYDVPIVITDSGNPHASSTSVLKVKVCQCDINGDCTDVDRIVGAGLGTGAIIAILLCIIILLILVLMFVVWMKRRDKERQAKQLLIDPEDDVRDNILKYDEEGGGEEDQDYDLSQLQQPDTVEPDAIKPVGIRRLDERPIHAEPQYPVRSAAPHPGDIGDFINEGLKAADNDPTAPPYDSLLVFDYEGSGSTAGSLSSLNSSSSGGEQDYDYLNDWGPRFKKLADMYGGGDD

chick N-cadherin = target: T2, chick N-cadherin (Gallus gallus, UniProt P10288); assay: Neurite outgrowth of rat cerebellar neurons on N-cadherin expressing 3T3 monolayers (Example 15); assay type: cell-based; details: Tables 8 and 9
T2 construct: expressed in transfected cells; host or cells: 3T3 fibroblasts (monolayer); rat post-natal day 2-3 cerebellar neurons plated on top
T2 sequence (P10288 165-912): T1 sequence (P10288 165-912)
Experimental: Cell culture and neurite outgrowth assays. Co-cultures of cerebellar neurons on monolayers of control 3T3 cells and monolayers of transfected 3T3 cells that express physiological levels of chick N-cadherin or human L1 were established as previously described (Williams et al., Neuron 13:583-594, 1994). In brief, 80,000 3T3 cells (control and transfected) were plated into individual chambers of an eight-chamber tissue culture slide coated with polylysine and fibronectin and cultured in DMEM/10% FCS. After 24 hours, when confluent monolayers had formed, the medium was removed and 3000 cerebellar neurons isolated from post-natal day 2-3 rats were plated into each well in SATO media (Doherty et al., Nature 343:464-466, 1990) supplemented with 2% FCS. All of the test peptides were added immediately before the neurons as a 2× stock prepared in SATO/2% FCS. The co-cultures were maintained for 16-18 hours, at which time they were fixed and immunostained for GAP-43 which is present only in the neurons and delineates the neuritic processes. The mean length of the longest neurite per cell was measured for 150-200 neurons sampled in replicate cultures as previously described (Williams et al., Neuron 13:583-594, 1994). […] Dose-response curves were evaluated and the EC50 values determined.

[5] = test system: Madin Darby canine kidney (MDCK) cells; assay type: cell-based; details: 18 h

| Compound | pIC50 (HMVEC) | pIC50 (HUVEC) | pIC50 (IAFp2) | pIC50 (MDA-MB231 [1]) | pIC50 (PC-3 [2]) | pIC50 (WI-38) | pIC50 (MDA-MB231 [3]) | pIC50 (PC-3 [4]) | inhibition at 250 µg/mL (N-cadherin) | inhibitory activity on N-cadherin dependent neurite outgrowth, structure/activity statements (chick N-cadherin; listed as H-CAHAVDIC-NH2) | inhibitory activity on N-cadherin dependent neurite outgrowth, structure/activity statements (chick N-cadherin; listed as compound 15) | pEC50 [5] |
| --- | --- | --- | --- | --- | --- | --- | --- | --- | --- | --- | --- | --- |
| CC(=O)N[C@H]1CSSC[C@@H](C(N)=O)NC(=O)[C@H](CO)NC(=O)[C@H](CO)NC(=O)[C@H](C(C)C)NC(=O)CNC(=O)[C@H](Cc2c[nH]cn2)NC(=O)[C@H](CO)NC1=O (Ac-CSHGVSSC-NH2; disulfide 1-8) | < 4.00 | < 4.00 | < 4.00 | < 4.00 | < 4.00 | < 4.00 | < 4.00 | < 4.00 | 0% |  |  |  |
| CC[C@H](C)[C@@H]1NC(=O)[C@H](CC(=O)O)NC(=O)[C@H](C(C)C)NC(=O)[C@H](C)NC(=O)[C@H](Cc2c[nH]cn2)NC(=O)[C@H](C)NC(=O)[C@@H](N)CSSC[C@@H](C(N)=O)NC1=O (H-CAHAVDIC-NH2; disulfide 1-8) | < 4.00 | < 4.00 | < 4.00 | < 4.00 | < 4.00 | < 4.00 | < 4.00 | < 4.00 | 0% | total loss of activity | lost activity |  |
| CC[C@H](C)[C@@H]1NC(=O)[C@H](CC(=O)O)NC(=O)[C@H](C(C)C)NC(=O)CNC(=O)[C@H](Cc2c[nH]cn2)NC(=O)[C@H](C)NC(=O)[C@@H](N)CSSC[C@@H](C(N)=O)NC1=O (H-CAHGVDIC-NH2; disulfide 1-8) | < 4.00 | < 4.00 | < 4.00 | < 4.00 | < 4.00 | < 4.00 | < 4.00 | < 4.00 | 0% |  |  |  |
| CC(C)[C@@H]1NC(=O)[C@H](C)NC(=O)[C@H](Cc2c[nH]cn2)NC(=O)[C@@H](NS(C)(=O)=O)CSSC[C@@H](C(=O)N[C@@H](Cc2ccc(O)cc2)C(N)=O)NC1=O [CH3—SO2—NH—CHAVCY—NH2] (Ms-CHAVCY-NH2; disulfide 1-5) |  |  |  |  |  |  |  |  |  |  |  | 3.85 |
| CC(C)[C@@H]1NC(=O)[C@H](C)NC(=O)[C@H](Cc2c[nH]cn2)NC(=O)[C@H](C)NC(=O)[C@@H](N)CSSC[C@@H](C(N)=O)NC(=O)[C@H](CC(=O)O)NC1=O [H—CAHAVDC—NH2, H-Cys-Ala-His-Ala-Val-Asp-Cys-NH2] (H-CAHAVDC-NH2; disulfide 1-7) | < 4.00 | < 4.00 | < 4.00 | < 4.00 | < 4.00 | < 4.00 | < 4.00 | < 4.00 | 0% |  |  |  |
| CC(C)[C@@H]1NC(=O)CNC(=O)[C@H](Cc2c[nH]cn2)NC(=O)[C@H](C)NC(=O)[C@@H](N)CSSC[C@@H](C(N)=O)NC(=O)[C@H](CC(=O)O)NC1=O [H—CAHGVDC—NH2] (H-CAHGVDC-NH2; disulfide 1-7) | < 4.00 | < 4.00 | < 4.00 | < 4.00 | < 4.00 | < 4.00 | < 4.00 | < 4.00 | 0% |  |  |  |
